Experimental data: patent US11883416B2, “Methods and compositions for the treatment of IL13Ra2—overexpressing cancer” (CONSEJO SUPERIOR DE INVESTIGACIONES CIENTÍFICAS (CSIC), priority 2020, dated 2024)
“Also recorded” adds a separate entry of the source.

Tests used:
[1] = assay type: cell-based; conditions: data not shown
Method: (§1) Next, the effect of the PTP1B inhibitor Claramine on the pro-invasive effects of IL-13 was investigated. First, the cellular toxicity of Claramine was studied at different doses. Claramine at 5 μM caused around 50% decrease in cell survival, but had no effect at 2 μM, which was used in the remaining experiments (data not shown). […] The effects of Claramine on cell adhesion, migration, invasion, and, to a minor extent, proliferation mimicked the effects of PTP1B silencing in the three types of cancer cells (FIG. 5 B-E).

A2780 cells [2] = assay: Western blot of pSrc Y530 in IL-13-treated cells; assay type: cell-based, human; conditions: 2 μM Claramine, IL13-treated A2780
Method: (§2) FIG. 5. […] B) KM12SM cells were subjected to cell adhesion. C) KM12SM and U87MG cells were subjected to MTT assays. The three cell lines were subjected to D) migration and E) invasion assays. All the experiments were done in the presence or absence of IL-13, Claramine and/or anti-IL13Rα2 blocking antibodies.
(§3) Western blot assays were done as previously described.
as §1

KM12SM cells [3] = assay: Western blot of pSrc Y530 in IL-13-treated cells; assay type: cell-based, human; conditions: 2 μM Claramine, IL13-treated KM12SM
Method: as §2, §3, §1

U87MG cells [4] = assay: Western blot of pSrc Y530 in IL-13-treated cells; assay type: cell-based, human; conditions: 2 μM Claramine, IL13-treated U87MG
Method: as §2, §3, §1

KM12SM cells [5] = assay: IL-13-induced cell adhesion to Matrigel; assay type: cell-based, human; conditions: IL-13 10 ng/ml, Claramine 2 μM, trifluoroacetate salt
Method: as §2
(§4) Adhesion, wound healing and invasion assays have been previously reported.
as §1

KM12SM cells [6] = assay: MTT proliferation assay with IL-13; assay type: cell-based, human; conditions: IL-13, Claramine 2 μM
Method: as §2
(§5) Proliferation assays have been previously described. To assess cell survival to oxidative stress, 10^4 cells were seeded per well on 96-well plates and incubated for 24 h in DMEM containing 1% serum in presence of 1 mM H2O2, followed by 1 h incubation with MTT. Cell viability was determined by A560 nm and compared with untreated cells.
as §1

U87MG cells [7] = assay: MTT proliferation assay with IL-13; assay type: cell-based, human; conditions: IL-13, Claramine 2 μM
Method: as §2, §5, §1

A2780 cells [8] = assay: IL-13-triggered migration (wound healing) assay; assay type: cell-based, human; conditions: A2780, IL-13, Claramine 2 μM; trifluoroacetate salt
Method: as §2, §4, §1

KM12SM cells [9] = assay: IL-13-triggered migration (wound healing) assay; assay type: cell-based, human; conditions: IL-13, Claramine 2 μM, trifluoroacetate salt
Method: as §2, §4, §1

U87MG cells [10] = assay: IL-13-triggered migration (wound healing) assay; assay type: cell-based, human; conditions: IL-13, Claramine 2 μM, trifluoroacetate salt
Method: as §2, §4, §1

A2780 cells [11] = assay: IL-13-triggered invasion assay; assay type: cell-based, human; conditions: A2780, IL-13, Claramine 2 μM; trifluoroacetate salt
Method: as §2, §4, §1

KM12SM cells [12] = assay: IL-13-triggered invasion assay; assay type: cell-based, human; conditions: IL-13, Claramine 2 μM, trifluoroacetate salt
Method: as §2, §4, §1

U87MG cells [13] = assay: IL-13-triggered invasion assay; assay type: cell-based, human; conditions: IL-13, Claramine 2 μM, trifluoroacetate salt
Method: as §2, §4, §1

[14] = MTT assay for survival to oxidative stress (IL-13 promoted cell survival); assay type: cell-based; conditions: data not shown
Method: as §5, §1

U251 GBM cells = assay: Western blot of EGF and IL-13 signaling (pEGFR Y1068, pPTP1B Y66, pSrc Y419); assay type: cell-based, human
Method: FIG. 6. […] (A) U251 cells were treated with EGF, IL-13 or both, with or without Claramine. Cell extracts were analyzed by western blot to detect pEGFR Y1068, pPTP1B Y66, and pSrc Y419. B) U251 cells silenced for EGFR, IL13Rα2 or control cellswere treated with EGF or IL-13 in the presence or absence of Claramine. Cells were lysed and whole extracts were analyzed by western blot to detect pEGFR Y1068, pPTP1B Y66 and pSrc Y419.
as §3
EGFR is a substrate of PTP1B and might cooperate with IL13Rα2 in GBM invasion. To determine whether PTP1B participates in the modulation of the EGFR pathway besides the IL13Rα2, the effect of Claramine on EGF and IL-13 signaling in GBM was investigated. […] PTP1B Tyr66 was also phosphorylated by EGF and IL-13, indicating the participation of PTP1B in both pathways.

GBM cells = assay: 2-NBDG glucose uptake assay; assay type: cell-based, human; conditions: data not shown
Method: Flow cytometry was performed as previously described. For IL13Rα2 internalization assays, cells were starved for 3 h, detached with 2 mM EDTA, incubated 30 min with IL-13 at 37° C., primary and secondary antibodies for 30 min at 4° C. and analyzed in the cytofluorimeter as previously described. For glucose uptake determination, cells were incubated with IL-13 and/or Claramine and subjected to the assays using 2-NBDG glucose uptake assays kit (BioVision) according to manufacturer's instructions. Glucose uptake was quantified in the cytofluorimeter.
(§6) As PTP1B silencing or Claramine treatment might modulate glucose and energy homeostasis including insulin signaling, the effect of IL-13 on the glucose uptake and insulin signaling was also investigated. IL-13 increased the glucose uptake in GMB cells but not in CRC cells (data not shown). […] The phosphorylation of insulin receptor substrate 1 (IRS-1) in CRC and GBM cells treated with IL-13 and Claramine was then studied. A strong phosphorylation of IRS-1 in U251 cells treated with IL-13 was found. In contrast, phosphorylation of IRS-1 in KM12SM cells was much weaker, without differences after IL-13 addition. […] Together, these studies support that Claramine effect on tumor cells seems to be independent of the glucose homeostasis.

KM12SM cells [15] = assay: phosphorylation of insulin receptor substrate 1 (IRS-1); assay type: cell-based, human; conditions: KM12SM cells treated with IL-13 and Claramine
Source text: as §6

U251 cells [16] = assay: as above; assay type: cell-based, human; conditions: U251 cells treated with IL-13 and Claramine
Source text: as §6

KM12SM cells [17] = assay: colorectal cancer liver metastasis model, intrasplenic inoculation; assay type: in vivo, Swiss nude mice
Method: (§7) FIGS. 7A-7E show PTP1B inhibition increases survival in CRC and glioblastoma mouse models. […] Murine β-actin amplification was used as a loading control.
(§8) For GBM xenografts, NSG mice were subcutaneously inoculated with U251 cells. Then, mice were treated intraperitoneally with 7 doses of Claramine (every three days) starting day 15 after implantation (a total of 2 mg/kg of body weight). The size of subcutaneous tumors was measured every 2 days. After euthanasia, tumors were isolated and the extracts subjected to Western blot analysis to determine IL13Rα2 and PTP1B activation. Liver homing and metastasis experiments in Swiss nude mice have been described. For CRC metastasis, mice were treated with the same dose of Claramine as above. Animals were weighed to study the effects on food intake and tolerance to the treatment.
Finally, the in vivo effects of PTP1B silencing or inhibition in colorectal cancer and glioblastoma mouse models were investigated. Given the high homology between murine and human IL-13, it was hypothesized that it was unnecessary to treat the mice with exogenous human IL-13 (11). Fora further confirmation, human and murine IL-13 were compared in an invasion experiment. Both IL-13 promoted a similar pro-invasive capacity on human cancer cells (data not shown). Then, the effect of PTP1B silencing on the capacity for liver homing of KM12SM cells inoculated in the spleen of nude mice was examined. As a surrogate marker for homing, human GAPDH was detected in the livers of mice inoculated with control cells but not in those inoculated with PTP1B-silenced cells (FIG. 7A). Then, the effects of Claramine on mice survival in colorectal cancer metastasis were investigated. Forty-eight h after spleen inoculation with CRC cells, mice were treated intraperitoneally (i.p.) with Claramine for two weeks on alternate days, with a total dose of 49 μg/mouse.

U251 cells [18] = assay: GBM subcutaneous xenograft tumor growth; assay type: in vivo, NSG mice
Method: as §7, §8
Next, the in vivo effect of Claramine on GBM tumor growth and intracranial inoculation was investigated. First, mice were subcutaneously inoculated with U251 cells and xenografts were allowed to grow for 15 days before starting i.p. treatment with Claramine (FIG. 7C). Tumors in treated mice stop growing for the duration of the treatment when compared with non-treated mice. […] In addition, the involvement of IL13Rα2 and PTP1B in the tumor growth was studied using xenograft tissues. A significant increase of PTP1B phosphorylation (3-5 times) in vivo compared to cells in culture was found. […] An increased expression of IL13Rα2 in the xenografts was also noticed.

GBM12 PDX = assay: intracranial model of GBM; assay type: in vivo, athymic nude mice
Source text: as §7
For intracranial experiments, athymic nude male mice were purchased from Jackson Laboratories. All experiments were approved by the Northwestern University Institutional Animal Care and Use Committee (IACUC). For the intracranial implantation of cannula and tumor cells, 6-8 weeks old […] mice were first anesthetized with a ketamine HCl (25 mg/ml)/xylazine (2.5 mg/ml) cocktail. A previously established surgical procedure was utilized in this study with a small variation reflecting the cannula implantation. For that, a custom-made 26 gauge sterile guide cannula (Plastics One, Roanoke, VA) was installed into the brain through a burr hole at 2 mm depth and secured with tissue glue (3M, St Paul, MN). For the glioma PDX cells implantation, a 33-gauge sterile syringe was inserted into the guide cannula at 3 mm depth following by infusion of 2.5 μl of 10^5 GBM12 cells. The skin incision was closed with surgical glue around the implantation site. The extracranial end of the cannula was then covered with a 33-gauge protection dummy cannula. The surgical procedure was followed with a standard post-surgery care according to the approved protocol. The intracranial injection of Claramine through cannula was done in 4 fractions for a total 4-8 mg/kg starting day 7 after tumor implantation and every 3 days after that. For systemic treatment, Claramine was delivered intravenously in 4 fractions for a total 8, 15 or 30 mg/kg starting day 7 after tumor implantation and every 3 days after that. Sterile 0.9% saline solution served as a negative control in all experiments.
Finally, an intracranial model of GBM using the GBM12 PDX that expresses high amounts of IL13Rα2 was tested. Tumors were implanted intracranially for seven days before starting the treatment with four doses of Claramine for a total of 4 mg/kg or 8 mg/kg (FIG. 7E). The median survival for the treated mice increased up to 36-39 days from 27 days of the control mice.

[19] = U251 cells silenced for EGFR, IL13Rα2 or control, FIG. 6B

Compound: CC(C)CCC[C@@H](C)[C@H]1CC[C@H]2[C@@H]3C[C@@H](NCCCNCCCCNCCCN)C4C[C@@H](O)CC[C@]4(C)[C@H]3CC[C@]12C.O=C(O)C(F)(F)F (stereo partly drawn) [Claramine, (3β, 6β)-6-[[3-[[4-[(3-Aminopropyl)amino]butyl]amino]propyl]amino]-cholestan-3-ol trifluoroacetate salt]
- effect on cell survival ([1]; Claramine at 2 μM): no effect
- decrease in cell survival ([1]; Claramine at 5 μM): around 50%
- phosphorylation of Src Tyr530 (A2780 cells [2]): preserved
- phosphorylation of Src Tyr530 (KM12SM cells [3]): preserved
- phosphorylation of Src Tyr530 (U87MG cells [4]): preserved
- IL-13-induced cell adhesion to Matrigel (KM12SM cells [5]): inhibited; also recorded: abolished
- proliferation (MTT) (KM12SM cells [6]): inhibited
- proliferation (MTT) (U87MG cells [7]): inhibited
- cell migration (A2780 cells [8]): inhibit
- cell migration (KM12SM cells [9]): inhibit
- cell migration (U87MG cells [10]): inhibit
- cell invasion (A2780 cells [11]): inhibit
- cell invasion (KM12SM cells [12]): inhibit
- cell invasion (U87MG cells [13]): inhibit
- IL-13 promoted cell survival [14]: significant reduction
- EGFR activation (U251 GBM cells; [19]): suppressed
- Src activation (U251 GBM cells; [19]): suppressed
- activation of EGFR (pEGFR Y1068) by EGF and IL-13 (U251 GBM cells; U251 cells, FIG. 6A): inhibited
- activation of Src (pSrc Y419) by EGF and IL-13 (U251 GBM cells; U251 cells, FIG. 6A): inhibited
- IL-13-increased glucose uptake (GBM cells): did not inhibit
- IRS-1 phosphorylation (KM12SM cells [15]): did not affect
- IRS-1 phosphorylation (U251 cells [16]): did not affect
- mice survival (Kaplan-Meier) (KM12SM cells [17]; KM12SM intrasplenic, p<0.001): significantly increased
- state of treated mice at sacrifice (KM12SM cells [17]; day 100 post-inoculation, total dose 49 μg/mouse i.p.): without symptoms of the disease, presence of metastatic nodes or weight loss
- protection against liver metastases (KM12SM cells [17]; i.p., two weeks on alternate days, total dose 49 μg/mouse, trifluoroacetate salt): complete protection; also recorded: complete inhibition
- phosphorylation of PTP1B in xenograft tissues (U251 cells [18]; Western blot of tumor extracts): moderate inhibition
- toxicity / weight of the animals (U251 cells [18]; during i.p. treatment with Claramine, trifluoroacetate salt): remained constant; also recorded: No Claramine toxicity was observed
- tumor growth (U251 cells [18]; i.p. treatment starting 15 days after implantation, 7 doses, total 2 mg/kg, trifluoroacetate salt): significantly inhibited; also recorded: stop growing; also recorded: regression
- mice survival (Kaplan-Meier), treated versus control (GBM12 PDX; GBM12 PDX intracranial, p<0.001, trifluoroacetate salt): significantly increased; also recorded: statistically significant difference in survival; also recorded: considerable increase
- survival up to (GBM12 PDX; four doses, total of 4 mg/kg or 8 mg/kg, from day 7): 70-72 days post-inoculation
- median survival (GBM12 PDX; four doses, total of 4 mg/kg or 8 mg/kg, from day 7, control mice 27 days): 36 to 39 days
